Data on five compounds can be found in patent US10881110B2, “Herbicidal compositions comprising isoxazolo[5,4-b]pyridines” (BASF SE, priority 2014, dated 2021).

Test in all cases: greenhouse post-emergence herbicidal test
In one experiment the test system is VIOAR. The class given is in vivo, Viola arvensis. The note with it: Viola arvensis, post-emergence, read-out: herbicidal activity against VIOAR found. A digest of the protocol:
(§1)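 Herbicidal activity scored on a 0 (no damage) to 100 (plants destroyed) scale, usually 20 days after water-based spraying of 1–15 cm plants grown in loamy sand at 10-25 °C or 20-35 °C depending on species. Components were applied from 10% emulsion concentrates; Colby's E=X+Y−(X·Y/100) gives the additive expectation.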

A further experiment deals with ERICA. The class given is in vivo, Conyza canadensis. The settings on record: Erigeron canadensis, post-emergence, 480 h, read-out: herbicidal activity against ERICA found. A digest of the protocol: (§2)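 Test plants, sown directly or transplanted a few days earlier, are treated at 1–15 cm height with emulsified or suspended actives in water. Temperatures run 10-25° C or 20-35° C by species; injury is scored 0–100 twenty days after spraying.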

Another experiment relates to ECHCG. Format: in vivo, Echinochloa crus-galli. Also noted: key to herbicidal activity against ECHCG found / herbicidal activity against ECHCH found: scale 0 to 100. The note with it: for herbicidal activity against ECHCG found: B.167 125 g/ha a.i. The procedure: (§3) The culture containers used were plastic pots containing medium loamy sand with approximately 4.6% of humus and 69.9% sand as substrate. The seeds of the test plants were sown separately for each species.
(§4) For the post-emergence treatment, the test plants were grown to a plant height of from 1 to 15 cm, depending on the plant habit, and only then treated with the active compounds which had been suspended or emulsified in water. To this end, the test plants were either sown directly, and grown in the same containers, or they were first grown separately as seedlings and transplanted into the test containers a few days prior to treatment.
(§5) Depending on the species, the plants were kept at 10-25° C. and 20-35° C., respectively.
(§6) The test period extended over 1 to 3 weeks. During this time, the plants were tended and their response to the individual treatments was evaluated 20 days after treatment except mentioned otherwise.
(§7) Evaluation was carried out using a scale from 0 to 100. 100 means no emergence of the plants, or complete destruction of at least the above-ground parts, and 0 means no damage or normal course of growth.
(§8) The respective stated components A and B, and, if appropriate, C, were formulated as a 10% by weight strength emulsion concentrate and, with addition of the amount of solvent system, introduced into the spray liquor used for applying the active compound. In the examples, the solvent used was water.
(§9) In the examples below, using the method of S. R. Colby (1967) “Calculating synergistic and antagonistic responses of herbicide combinations”, Weeds 15, p. 22 ff., the value E, which is expected if the activity of the individual active compounds is only additive, was calculated. E=X+Y−(X·Y/100)

A further experiment concerns GERDI. The class given is in vivo, Geranium dissectum. Details: key to herbicidal activity against GERDI found: rating on a scale from 0 to 100. A digest of the protocol:
as §2

Another experiment relates to MATCH. The class given is in vivo, Matricaria recutita. Details: key to herbicidal activity against MATCH found: rating on a scale from 0 to 100. The note with it: for herbicidal activity against MATCH found: I.1 62.5 g/ha. In short, it runs like this:
as §2

The next experiment deals with KCHSC. Format: in vivo, Kochia scoparia. Details: key to herbicidal activity against KCHSC found: rating on a scale from 0 to 100. The settings on record: for herbicidal activity against KCHSC found: B.167 62.5 g/ha a.i. The procedure:
as §3, §4, §5, §6, §7, §8, §9

Another experiment relates to POLCO. The class given is in vivo, Polygonum convolvulus. Also noted: key to herbicidal activity against POLCO found: rating on a scale from 0 to 100. A digest of the protocol:
as §1

In the next experiment the test system is ALOMY. The class given is in vivo, Alopecurus myosuroides. The note with it: Alopecurus myosuroides, post-emergence, 480 h, post emergence, read-out: herbicidal activity against ALOMY found. In short, it runs like this:
as §2

In the next experiment the test system is APESV. The class given is in vivo, Apera spica-venti. The note with it: Apera spica-venti, post-emergence, 480 h, post emergence, read-out: herbicidal activity against APESV found. The procedure: as §3, §4, §5, §6, §7, §8, §9
The next experiment concerns IPOHE. The class given is in vivo, Ipomoea hederacea. The note with it: Ipomoea hederacea, post-emergence, 480 h, single active, 50 g/ha a.i., post emergence; read-out: herbicidal activity against IPOHE found. As for the experimental part:
as §3, §4, §5, §6, §7, §8, §9

A further experiment concerns ABUTH. Format: in vivo, Abutilon theophrast. Details: key to herbicidal activity against ABUTH found: rating on a scale from 0 to 100. The note with it: post emergence, I.1 62.5 g/ha. In short, it runs like this:
as §2

The test system of the next experiment is GALAP. Format: in vivo, Galium aparine. The note with it: Galium aparine, post-emergence, 480 h, post emergence; aclonifen 250 g/ha a.i.; read-out: herbicidal activity against GALAP found. In short, it runs like this: as §1
Setting [1] is: single active, 50 g/ha a.i., post emergence.
The mark [2] stands for this setting: post emergence, I.1 62.5 g/ha, B.167 125 g/ha a.i.

As for `CS(=O)(=O)c1ccc(C(=O)C2C(=O)CCCC2=O)c(Cl)c1` [B.104, sulcotrione], the pest or weed control at 15 g/ha in the experiment on VIOAR came out at 85%; with ERICA, 75%; in the experiment on ECHCG (Echinochloa crus-galli, post-emergence, 480 h, read-out: herbicidal activity against ECHCG found) it was 80%; with GERDI (Geranium dissectum, post-emergence, 480 h, read-out: herbicidal activity against GERDI found) it was 45%; in the experiment with MATCH (Matricaria chamomilla, post-emergence, 480 h, read-out: herbicidal activity against MATCH found) it was 10%; in the experiment on KCHSC (Bassia scoparia, post-emergence, 480 h, read-out: herbicidal activity against KCHSC found) it was 90%. In the experiment on POLCO (Fallopia convolvulus, post-emergence, 480 h, read-out: herbicidal activity against POLCO found), the pest or weed control at 15 g/ha was 90%.
In the case of `CC(C)N(C(=O)COc1nnc(C(F)(F)F)s1)c1ccc(F)cc1` [B.130, flufenacet], the pest or weed control at 50 g/ha was 40% in the experiment with ALOMY (single active, 50 g/ha a.i.); 85% in the experiment on APESV (single active, 50 g/ha a.i.); 80% in the experiment with VIOAR (setting [1]); 0% in the experiment with ERICA (setting [1]); 10% with GERDI (Geranium dissectum, post-emergence, 480 h, single active, 50 g/ha a.i., post emergence, read-out: herbicidal activity against GERDI found); 60% in the experiment on IPOHE. Also, the pest or weed control at 50 g/ha in the experiment on MATCH (Matricaria chamomilla, post-emergence, 480 h, single active, 50 g/ha a.i., post emergence, read-out: herbicidal activity against MATCH found) came to 0%; in the experiment on KCHSC (Bassia scoparia, post-emergence, 480 h, single active, 50 g/ha a.i., post emergence, read-out: herbicidal activity against KCHSC found), 0%; with POLCO (Fallopia convolvulus, post-emergence, 480 h, single active, 50 g/ha a.i., post emergence, read-out: herbicidal activity against POLCO found), 10%. Moreover, the pest or weed control at 100 g/ha in the experiment on ALOMY (single active, 100 g/ha a.i.) was determined as 65%; in the experiment with ECHCG (Echinochloa crus-galli, post-emergence, 480 h, single active, 100 g/ha a.i., post emergence, read-out: herbicidal activity against ECHCG found), 65%; in the experiment on GERDI (Geranium dissectum, post-emergence, 480 h, single active, 100 g/ha a.i., post emergence, read-out: herbicidal activity against GERDI found) it was 10%; with MATCH (Matricaria chamomilla, post-emergence, 480 h, single active, 100 g/ha a.i., post emergence, read-out: herbicidal activity against MATCH found) it was 20%; in the experiment with POLCO (Fallopia convolvulus, post-emergence, 480 h, single active, 100 g/ha a.i., post emergence, read-out: herbicidal activity against POLCO found), 10%.
For the compound `O=C(O)c1c(Cl)ccc2cc(Cl)cnc12` [B.167, quinclorac], the “herbicidal activity against ECHCG found” value in the experiment with ECHCG (post emergence, I.1 15.62 g/ha) is reported as 20; with ECHCG (post emergence, I.1 31.25 g/ha), 20. Moreover, the “herbicidal activity against GERDI found” value in the experiment on GERDI (setting [2]) stood at 0. In addition, the “herbicidal activity against ABUTH found” value was determined as 65 in the experiment with ABUTH (B.167 62.5 g/ha a.i.) and 70 in the experiment with ABUTH (B.167 125 g/ha a.i.). The “herbicidal activity against MATCH found” value amounted to 0 with MATCH (post emergence, B.167 62.5 g/ha a.i.) and 30 in the experiment on MATCH (post emergence, B.167 125 g/ha a.i.). The “herbicidal activity against KCHSC found” value is reported as 0 in the experiment with KCHSC (post emergence, I.1 31.25 g/ha) and 0 with KCHSC (post emergence, I.1 62.5 g/ha). In addition, the “herbicidal activity against POLCO found” value was found to be 0 in the experiment on POLCO (post emergence, I.1 15.62 g/ha, B.167 62.5 g/ha a.i.); 30 with POLCO (post emergence, I.1 15.62 g/ha, B.167 125 g/ha a.i.); 0 in the experiment with POLCO (post emergence, I.1 62.5 g/ha, B.167 62.5 g/ha a.i.); 30 in the experiment with POLCO (setting [2]).
As for `Cc1cnc2c(C(=O)O)c(Cl)ccc2c1` [B.169, quinmerac], the pest or weed control at 62.5 g/ha in the experiment on ALOMY (B.169 62.5 g/ha a.i.) was 0%; with APESV (B.169 62.5 g/ha a.i.), 0%; with ERICA (post emergence, B.169 62.5 g/ha a.i.) it was 65%; in the experiment on ECHCG (Echinochloa crus-galli, post-emergence, 480 h, post emergence, B.169 62.5 g/ha a.i., read-out: herbicidal activity against ECHCG found) it was 0%; with KCHSC (Bassia scoparia, post-emergence, 480 h, post emergence, B.169 62.5 g/ha a.i., read-out: herbicidal activity against KCHSC found), 10%. Besides, the pest or weed control at 125 g/ha with ERICA (post emergence, B.169 125 g/ha a.i.) is 75%; with KCHSC (Bassia scoparia, post-emergence, 480 h, post emergence, B.169 125 g/ha a.i., read-out: herbicidal activity against KCHSC found) it was 25%.
As for `Nc1c([N+](=O)[O-])ccc(Oc2ccccc2)c1Cl` [aclonifen], the pest or weed control at 250 g/ha stood at 30% with ALOMY (aclonifen 250 g/ha a.i.); 50% in the experiment with ECHCG (Echinochloa crus-galli, post-emergence, 480 h, post emergence, aclonifen 250 g/ha a.i., read-out: herbicidal activity against ECHCG found); 30% in the experiment with GERDI (Geranium dissectum, post-emergence, 480 h, post emergence, aclonifen 250 g/ha a.i., read-out: herbicidal activity against GERDI found); 80% in the experiment with GALAP; 0% in the experiment on MATCH (Matricaria chamomilla, post-emergence, 480 h, post emergence, aclonifen 250 g/ha a.i., read-out: herbicidal activity against MATCH found); 85% in the experiment with POLCO (Fallopia convolvulus, post-emergence, 480 h, post emergence, aclonifen 250 g/ha a.i., read-out: herbicidal activity against POLCO found). The pest or weed control at 500 g/ha was 60% in the experiment with ALOMY (aclonifen 500 g/ha a.i.); 0% in the experiment on ERICA (post emergence, aclonifen 500 g/ha a.i.); 80% in the experiment on ECHCG (Echinochloa crus-galli, post-emergence, 480 h, post emergence, aclonifen 500 g/ha a.i., read-out: herbicidal activity against ECHCG found); 70% with GERDI (Geranium dissectum, post-emergence, 480 h, post emergence, aclonifen 500 g/ha a.i., read-out: herbicidal activity against GERDI found); 0% in the experiment on MATCH (Matricaria chamomilla, post-emergence, 480 h, post emergence, aclonifen 500 g/ha a.i., read-out: herbicidal activity against MATCH found); 95% with POLCO (Fallopia convolvulus, post-emergence, 480 h, post emergence, aclonifen 500 g/ha a.i., read-out: herbicidal activity against POLCO found). Moreover, the pest or weed control at 1000 g/ha in the experiment on ALOMY (aclonifen 1000 g/ha a.i.) was 70%; in the experiment with ERICA (post emergence, aclonifen 1000 g/ha a.i.) it was 0%; in the experiment on MATCH (Matricaria chamomilla, post-emergence, 480 h, post emergence, aclonifen 1000 g/ha a.i., read-out: herbicidal activity against MATCH found), 0%; in the experiment on POLCO (Fallopia convolvulus, post-emergence, 480 h, post emergence, aclonifen 1000 g/ha a.i., read-out: herbicidal activity against POLCO found), 85%.
